Data set [1] can be described thus: Chromatographic hydrophobicity index (CHI) by UHPLC. The note with it: for CHI: LC/UV at pH 2.6, calculated from retention time with the calibration line; for chromatographic logP: back-calculated from CHI at pH 2.6: CHI LogP = 0.047 × CHI + 0.36 × HBC − 1.10. The format is physicochemical. The procedure:
The chromatographic hydrophobicity index (CHI) values were determined using the retention times (tR) of the samples under study and of a mixture of standard compounds on a UHPLC NEXERA SERIES LC-40 with a Luna C18 (2) column of 150 × 4.6 mm, 5 μm (Phenomenex, Torrance, CA, USA). Stock solutions of the test compounds (10 mM) were prepared in dimethyl sulfoxide (DMSO, 99.9%; Carlo Erba) and diluted in acetonitrile/water (1:1) to obtain a final concentration of 500 μM. The mobile phase A was 1.0% (v/v) aqueous acetic acid solution (pH = 2.6), and the mobile phase B was acetonitrile. The following gradient programme was applied: 1–7 min 0–100% B, 7–17 min 100% B, 17–19 min 100–0% B, 1 mL/min flow; rt, injection volume 40 μL.
A calibration line was obtained using a mixture of the following compounds: benzimidazole, theophylline, paracetamol, caffeine, colchicine, carbamazepine, indole, propiophenone, butyrophenone, valerophenone, and heptanophenone (Table S1 and Figure S50, Supplementary Materials). The experimental CHI values of the compounds tested at pH 2.6 were then converted to the logarithm of octanol/water partition coefficient (CHI LogP) values using Equation (1). CHI LogP = 0.047 × CHI + 0.36 × HBC − 1.10 (1) where HBC is the hydrogen bond donor count.

A further data set deals with S. aureus CECT 976. As to the kind of experiment: MIC/MBC by broth microdilution, S. aureus CECT 976. The data set is classed as cell-based. The note with it: Staphylococcus aureus, CECT976, S. aureus CECT 976, broth microdilution; for MIC: 24 h, 37 °C, read-out: MIC; for MBC: plated on PCA, read-out: MBC. (Dilution methods test growth across graded concentrations, often in twofold steps.)

In another data set the test system is S. aureus XU212. Description: MIC/MBC by broth microdilution, S. aureus XU212. The format is cell-based. The note with it: Staphylococcus aureus. How it is done:
(§1) S. aureus CECT 976, obtained from the Spanish Type Culture Collection, was used as the standard susceptibility testing control strain. This strain has been previously employed in diverse studies to validate the antimicrobial effects of novel molecules. Additional antibiotic-resistant strains, S. aureus XU212, SA1199B, and RN4220, generously provided by S. Gibbons (University College London, London, UK) were tested. […] The SA1199B strain is characterized by its resistance to fluoroquinolones due to the overexpression of the NorA efflux pump and its ciprofloxacin resistance.
(§2) The minimum inhibitory concentration (MIC) and minimum bactericidal concentration (MBC) values of all QHSs were determined by the broth microdilution method, according to the approved M7-A7 (aerobes) standards of the Clinical and Laboratory Standards Institute (CLSI) guidelines. Overnight cell cultures of S. aureus, in the exponential phase of growth, were adjusted to an optical density (OD) of 0.132 ± 0.02 (λ = 600 nm). Then, a volume of 180 µL of the cell suspension was added to sterile, flat, clear-bottomed polystyrene (PS) 96-well microtiter plates (VWR—Radnor, PA, USA), already containing 20 µL of each QHS under study at concentrations ranging from 0.0625 to 64 µg/mL. In the end, the volume of each compound never exceeded 10% (v/v) of the well volume. Microtiter plates were then incubated for 24 h at 37 °C under agitation (150 rpm; INCU-Line IL 150R incubator). Absorbance measurements were performed at the beginning (t = 0 h) and end (t = 24 h) of the incubation period using a microtiter plate absorbance reader (BMG LABTECH FLUOstar Omega). Bacterial suspensions with DMSO and without QHSs were used as negative controls. […] All tests were performed with six replicates and a minimum of three independent repeats.
(§3) Plates were incubated at 37 °C for 24 h, and growth was visually inspected. The MBC was determined as the lowest concentration of compound in which the total inhibition of growth on solid medium was observed (no colony forming units (CFUs) were detected). All tests were performed in triplicate, and with a minimum of three independent repeats.

Another data set concerns S. aureus SA1199B. Description: MIC/MBC by broth microdilution, S. aureus SA1199B. The data set is classed as cell-based. The note with it: Staphylococcus aureus. How it is done:
as §1, §2, §3

For another data set, the system named is S. aureus RN4220. Description: MIC/MBC by broth microdilution, S. aureus RN4220. The format is cell-based. The note with it: Staphylococcus aureus. The procedure: as §1, §2, §3

As for `CCCCCCCCCCCCCC[P+](c1ccccc1)(c1ccccc1)c1ccccc1` [Compound 1e, Triphenyl(tetradecyl)phosphonium bromide], the CHI in data set [1] was 105.0. Further, in data set [1], the chromatographic logP (commonly lipophilicity estimated from chromatographic retention) is 3.84. Besides, the MIC (usually the lowest concentration that inhibits growth of the organism) in the data set on S. aureus CECT 976 amounted to 1 µg/mL; against S. aureus XU212 it was 2 µg/mL; against S. aureus SA1199B it was 1 µg/mL; against S. aureus RN4220, 1 µg/mL. Besides, the minimum bactericidal concentration (MBC) (in general, the smallest concentration meeting the test's criterion for killing) in the data set on S. aureus CECT 976 is 16 µg/mL; in the data set with S. aureus XU212, 2 µg/mL; against S. aureus SA1199B, 2 µg/mL; against S. aureus RN4220, 2 µg/mL.
With `CCCCCCCCCCCCCC[n+]1ccn(C)c1.[Br-]` [Compound 2e, 1-Methyl-3-tetradecyl-1H-imidazol-3-ium bromide], in data set [1], the CHI is given as 81.36. Also, the chromatographic logP in data set [1] was 2.72. Moreover, the minimum inhibitory concentration (MIC) amounted to 1 µg/mL in the data set with S. aureus CECT 976, 32 µg/mL in the data set on S. aureus XU212, 8 µg/mL in the data set with S. aureus SA1199B and 4 µg/mL with S. aureus RN4220. The MBC was determined as 8 µg/mL in the data set with S. aureus CECT 976, 64 µg/mL in the data set with S. aureus XU212, 32 µg/mL in the data set on S. aureus SA1199B and 8 µg/mL against S. aureus RN4220.
As to `CCCCCCCCCCCCCC[n+]1ccc2ccccc2c1.[Br-]` [Compound 3e, 2-Tetradecylisoquinolin-2-ium bromide], the CHI in data set [1] is 87.98. The chromatographic logP in data set [1] is 3.04. For the same compound, the minimal inhibitory concentration (MIC) with S. aureus CECT 976 worked out at 2 µg/mL; against S. aureus XU212 it was 4 µg/mL; in the data set with S. aureus SA1199B it was 2 µg/mL; against S. aureus RN4220, 2 µg/mL. In addition, the minimum bactericidal concentration (MBC) in the data set on S. aureus CECT 976 was found to be 8 µg/mL; against S. aureus XU212, 8 µg/mL; with S. aureus SA1199B, 8 µg/mL; in the data set with S. aureus RN4220, 4 µg/mL.
On to `CCCCCCCCCCCCCC[n+]1ccc(C)cc1.[Br-]` [Compound 4e, 4-Methyl-1-tetradecylpyridin-1-ium bromide], for which the CHI in data set [1] is recorded as 82.90. The chromatographic logP in data set [1] was 2.8. In addition, the minimal inhibitory concentration (MIC) with S. aureus CECT 976 worked out at 2 µg/mL; with S. aureus XU212 it was 32 µg/mL; in the data set on S. aureus SA1199B it was 8 µg/mL; against S. aureus RN4220, 4 µg/mL. In addition, the MBC in the data set with S. aureus CECT 976 came to 8 µg/mL; with S. aureus XU212 it was 32 µg/mL; with S. aureus SA1199B, 32 µg/mL; in the data set on S. aureus RN4220 it was 8 µg/mL.
Consider `CCCCCCCCCCCCCC[n+]1cccc2ccccc21.[Br-]` [Compound 5e, 1-Tetradecylquinolin-1-ium bromide], for which the CHI in data set [1] is given as 88.00. Besides, the chromatographic logP in data set [1] is 3.04. For the same compound, the MIC in the data set with S. aureus CECT 976 was 2 µg/mL; with S. aureus XU212, 8 µg/mL; in the data set with S. aureus SA1199B it was 4 µg/mL; with S. aureus RN4220, 2 µg/mL. Besides, the MBC with S. aureus CECT 976, in the data set with S. aureus XU212, in the data set with S. aureus SA1199B and against S. aureus RN4220 was 8 µg/mL each time.
Take `CCCCCCCCCCCCCC[n+]1ccccc1.[Br-]` [Compound 6e, 1-Tetradecylpyridin-1-ium bromide]: the CHI in data set [1] is given as 79.90. Besides, the chromatographic logP in data set [1] was 2.65. The minimum inhibitory concentration (MIC) amounted to 4 µg/mL in the data set on S. aureus CECT 976, 32 µg/mL in the data set with S. aureus XU212, 16 µg/mL against S. aureus SA1199B and 4 µg/mL in the data set on S. aureus RN4220. For the same compound, the MBC in the data set with S. aureus CECT 976 was found to be 8 µg/mL; with S. aureus XU212, 64 µg/mL; in the data set with S. aureus SA1199B it was 16 µg/mL; with S. aureus RN4220, 8 µg/mL.
